Laboratory results: US9931313B2, “Methods of treating proliferative disorders with malate or derivatives thereof” (Beth Israel Deaconess Medical Center, Inc., priority 2012, dated 2018)
Values belong to the compound of their own block, whether it stands above or below them.

Columns and labels:
[1] = test system: A549 cells; experiment: Cellular ROS by CM-H2DCFDA flow cytometry in A549 cells; assay type: cell-based, human; conditions: for DMM-induced ROS production: 10 or 20 mM DMM with 20 mM NAC or 20 mM GSH
Procedure: (§1) Intracellular ROS production was measured by staining with CM-H2DCFDA. CM-H2DCFDA is a cell-permeant indicator for ROS that is nonfluorescent until removal of the acetate groups by intracellular esterases and oxidation occurs within the cell. The procedure for measuring ROS was carried out as described in Trachootham et al., in Cancer Cell. 10: 241-252 (2006), with minor modifications. Briefly, A549 cells transduced with shRNA lentiviral particles or control vector were selected with puromycin for 2 weeks, and then incubated with 5 μM CM-H2DCF-DA for 3 hours, followed by flow cytometry using a FACSCalibur equipped with CellQuest Pro software. Superoxide radicals (O2^−) were measured separately using the MitoSOX™ reagent according to the manufacturer's protocol (Invitrogen). In brief, cells with or without ME2 knockdown were incubated with 5 μM MitoSOX™ reagent for 10 minutes at 37° C., then washed three times and observed under a fluorescence microscope using the Rhodamine filter and Axiovision software for capturing images (Zeiss, Germany).

[2] = test system: A549 cells; experiment: Mitochondrial superoxide by MitoSOX Red in A549 cells; assay type: cell-based, human
Procedure: as §1
We measured the ROS source using MitoSOX™ Red, a reagent that selectively targeted to the mitochondria.

[3] = target: T1, ME2-C (Homo sapiens, UniProt P23368); experiment: In vitro activity of modified ME2 (ME2-C), absorbance at 340 nm; assay type: biochemical; conditions: 5, 15 and 45 mM DMM; 15 mM L-malate, 1 mM NAD+, 60 nM ME2-C, 37° C.
T1 construct: His tag (C); FLAG tag (cleavable) (C); made in house; host or cells: E. coli BL21(DE3)
T1 sequence (P23368 19-584): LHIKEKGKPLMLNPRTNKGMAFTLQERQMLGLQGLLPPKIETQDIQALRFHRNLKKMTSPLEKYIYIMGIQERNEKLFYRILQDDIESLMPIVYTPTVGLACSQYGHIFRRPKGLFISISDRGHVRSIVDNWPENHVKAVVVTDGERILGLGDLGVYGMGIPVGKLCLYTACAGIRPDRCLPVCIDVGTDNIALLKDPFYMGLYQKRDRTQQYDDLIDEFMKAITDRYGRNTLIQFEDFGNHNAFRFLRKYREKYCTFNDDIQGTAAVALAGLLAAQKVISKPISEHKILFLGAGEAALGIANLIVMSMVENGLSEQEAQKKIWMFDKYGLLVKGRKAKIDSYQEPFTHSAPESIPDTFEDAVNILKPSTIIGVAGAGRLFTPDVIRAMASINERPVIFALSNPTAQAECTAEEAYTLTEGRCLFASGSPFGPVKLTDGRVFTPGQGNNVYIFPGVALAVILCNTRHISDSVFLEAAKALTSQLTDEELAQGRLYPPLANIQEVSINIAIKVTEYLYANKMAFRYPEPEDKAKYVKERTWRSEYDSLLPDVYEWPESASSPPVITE
Procedure: Modified ME2 is a recombinant ME2 protein having a C-terminus His tag and lacking the mitochondrial targeting sequence (ME2-C) was prepared, as described in Loeber et al., J. Biol. Chem. 266:3016-3021 (1991). The 200 μl assay mixture contained 30 mM of Tris-HCl (pH 7.4), 15 mM of L-malate (pH 7.4), 1 mM of NAD^+, 2 mM of MnCl2, and 60 nM of ME2-C. Different concentrations of DMM (pH 7.4) were tested, namely 5, 15 and 45 mM. The absorbance of the solution at 340 nm was monitored continuously with a Beckman Coulter DTX 880 multimode spectrophotometer at 37° C.
To further determine compounds that can be used to inhibit ME2 and/or increase intracellular malate, or a derivative thereof, an ME2 assay was established. Accordingly, a modified ME2 protein was constructed using a human ME2 expression vector and a bacterial expression system (E. coli BL21(DE3)) with a cleavable FLAG tag. Both N- and C-terminal constructs were assessed for protein production, and the mitochondrial targeting sequence was deleted in the constructs, as described in Loeber et al., J. Biol. Chem. 266:3016-3021 (1991), which is incorporated herein by reference. Kinetic experiments were performed with C-terminal tagged ME2 (ME2-C) and with an assay mixture containing 30 mM of Tris-HCl (pH 7.4), 15 mM of L-malate (pH 7.4), 1 mM of NAD+, 2 mM of MnCl2, and 60 nM of ME2-C. […]

[4] = test system: normal human derived fibroblast (NHDF) and normal lung epithelial cells; experiment: ROS by CM-H2DCFDA in normal cells; assay type: cell-based; conditions: 5, 10, 20 mM DMM
Procedure: (§2) A: Treatment with DMM induced ROS production in both normal human derived fibroblast (NHDF) and normal lung epithelial cells (Normal lung). ROS was detected by flow cytometry using indicator CM-H2DCFDA. Data are provided for the following curves (from left to right): 0, 5 mM, 10 mM, or 20 mM DMM. […] Cell death was analyzed by Annexin V reagent. Each histogram is representative of three experiments
as §1, with “Briefly, A549 cells transduced with shRNA lentiviral particles or control vector were selected with puromycin for 2 weeks, and then incubated with 5 μM CM-H2DCF-DA for 3 hours, followed by flow cytometry using a FACSCalibur equipped with CellQuest Pro software.” left out

[5] = test system: Akt and PDK1; experiment: Western blotting of Akt/PDK1 phosphorylation and differentiation marker in A549 cells; assay type: cell-based, human; conditions: for DMM-induced differentiation / basal Akt activity in DMM-treated A549 cells: DMM in combination with NAC or GSH; for basal Akt activity in DMM-treated A549 cells: p-AKT473
Procedure: A549 cells with and without ME2 knockdown were lysed with RIPA buffer (50 mM Tris-HCl, pH 7.4, 150 mM NaCl, 1% NP-40, 0.1% SDS and 0.5% sodium deoxycholate), and equal amount of proteins were resolved by 4%-12% Bis-Tris gels (Invitrogen), as previously described in Ren et al., Proc. Natl Acad. Sci. USA 104: 10465-10469 (2007). Briefly, the proteins were transferred to a PVDF membrane, and membranes were blocked with BLOTTO (5% nonfat dry milk and 0.1% Tween 20 in PBS), and incubated with antisera generated against ME2, phospho-AKT380, phosphor-473, AKT1/2, phosphor-ERK1/2, ERK1, vimentin, GATA-1 or β-tubulin antibodies, respectively. Membranes were washed in PBS plus 0.1% Tween 20 and probed with anti-rabbit or anti-mouse HRP-conjugated secondary antibody (both at 1:10,000 dilution), and proteins were detected using the ECL Plus chemiluminescence detection reagent (Amersham Biosciences).

[6] = test system: A549 xenograft tumors; experiment: A549 xenograft in nude mice treated with DMM, cisplatin or both; assay type: in vivo, athymic nude mice
Procedure: Approximately 5×10^6 control pLKO cells were subcutaneously implanted into female athymic nude mice. Mice were treated with DMM, cisplatin (CP), a combination of cisplatin with DMM (CP+DMM), or control (PBS), as described herein. Tumor size was measured and calculated. B: Direct injection of DMM into xenograft tumors caused shrinkage and ulceration of tumors, as compared to control with PBS.
Animal experiments were performed under federal guidelines and approved by the Institutional Animal Care and Use Committee (IACUC) of the Beth Israel Deaconess Medical Center (Approval number 0342007). A549 xenografts in nude mice were generated by following the description of Verrax et al., in Biochem. Pharmacol. 72: 671-680 (2006). Briefly, approximately 10^7 ME2 deficient or control A549 cells resuspended in 200 μl of a serum-free culture medium/Matrigel mixture (1:1) were subcutaneously injected into the right and left flanks of male nude/nu/nu athymic mice, respectively. Tumor-bearing mice were sacrificed after 6-8 weeks and tumor masses were measured or imaged before excision. Tumor lysates were prepared by homogenization of tumor tissues in RIPA lysis buffer and were resolved by SDS-PAGE and transferred onto PDVF membranes and immunoblotted with anti-ME2 antibody and normalized by β-tubulin as a loading control.

[7] = test system: A549 cells; experiment: Proliferation assay of A549 cells treated with DMM; assay type: cell-based, human
Procedure: Control and ME2 deficient cell lines were plated in 6-well plate at a density of 1×10^5 cells/well and maintained at 37° C. in a 5% CO2 incubator. After 24, 72, 120 and 168 hours of initial plating, 0.5 ml cells were diluted into 10 ml of Hanks' buffer and counted by Coulter counter. All samples were assayed in triplicate to generate proliferation curves, as described in Benson et al., Nature 441: 451-456 (2006). For the clonogenic assay, A549 with stably expression ME2 knockdown and control shRNA cells were seeded in a 6-well plate at a density of 200 cells per well. Colonies were fixed with 10% formaldehyde for 5 min and stained with 0.5% crystal violet for 30 min and counted with NIH image software.
To test whether malate accumulation may damage mitochondrial function and further inhibit cell growth, an exogenous form of malate was delivered in vitro. Exogenous malate may mimic the phenotype-induced by ME2 knockdown. Therefore, we supplemented exogenous cell-permeable malate (Heart et al., Am. J. Physiol. 296: E1354-1362 (2009)) in A549 cell growth media and compared the phenotype with ME2 knockdown cells. DMM, being cell permeable, was used as an exogenous substitute for malate.

[8] = test system: A549 cells; experiment: Annexin-V apoptosis / cell death assay in A549 cells; assay type: cell-based, human; conditions: for DMM-induced cell death: DMM with NAC or GSH
Procedure: (§3) Apoptosis was measured by staining with the Nexin reagent using a Nexin kit and counting on the Guava PCA-96 system (Guava Technologies) as per the manufacture's protocol. Briefly, cells were harvested and re-suspended in 100 μl of 1× Nexin buffer, and then mixed with 100 μl of Annexin-V-PE, and Nexin 7-AAD. The cells were allowed to incubate for 20 minutes at room temperature and analyzed in the Guava flow cytometer.

[9] = test system: normal human derived fibroblast (NHDF) and normal lung epithelial cells; experiment: Cell death by Annexin V in normal cells; assay type: cell-based
Procedure: as §2, §3

[10] = test system: A549 cells; experiment: Survival of A549 cells in Hams/F12 medium without glucose, pyruvate and glutamine; assay type: cell-based, human; conditions: control and ME2 knockdown A549 cells, medium without pyruvate, glutamine
Procedure: A549 control or ME2 knockdown cells were grown in Hams/F12 based medium without glucose, pyruvate and glutamine. Different concentrations of glutamine were supplemented as indicated. The alive cells were stained with Nexin/7-ADD and analyzed by FACS. B: Exogenous supplementation of pyruvate can rescue ME2 depletion induced cell death. A549 control or ME2 knockdown cells were grown in Hams/F12 based medium without glucose, pyruvate and glutamine. Different concentrations of pyruvate were supplemented as indicated. The alive cells were stained with Nexin/7-ADD and analyzed by FACS. C and D: The effect of ME2 knockdown on de novo synthesis of PC is greater with ^13C6-Glc than with ^13C5, 1^5N2-Gln as tracer, as analyzed by FT-ICR-MS. E: Inhibition of ^13C3-citrate synthesis from ^13C6-Glc by ME2 knockdown, as determined by GC-MS. […] G and H: Effects of ME2 knockdown on the levels and fractional distribution of ^13C isotopologues of malate, as analyzed by GC-MS; rectangles depict ^13C2- (m2) and ^13C3-malate (m3) species as markers of the first turn of the Krebs cycle without and with pyruvate carboxylation input, respectively. […]

[11] = direct intratumoral injection, vs PBS

- activity of ME2-C [3]: decreased the activity
SMILES: COC(=O)CC(O)C(=O)OC (centres unmarked) [DMM, dimethyl malate]
- time course of DMM-induced ROS production ([1]; 3 h to 3 days): time-dependent
- ROS production (CM-H2DCFDA) ([1]; A549 cells, exogenous DMM 5, 10, 20 mM): enhanced production of ROS
- superoxide (MitoSOX Red) ([2]; 20 mM DMM for four days): increased presence of superoxide
- ROS production in normal cell lines [4]: enhanced ROS production
- E-cadherin expression ([5]; A549 cells in vitro): increased
- basal Akt and PDK1 activity ([5]; A549 cells in vitro, p-AKT473 and p-PDK1): inhibited
- A549 tumor growth in vivo ([6]; 0.5 g/kg of DMM): significantly inhibited
- tumor size after direct injection into A549 xenograft tumors [6, 11]: decreases in tumor size
- tumor tissue appearance after direct injection into A549 xenograft tumors [6, 11]: ulceration of the tumor tissue
- proliferation of A549 cells ([7]; 10 and 20 mM DMM, control (pLKO) and ME2 knockdown (shME2-3) A549 cells): significantly inhibited
- sensitivity of ME2 knockdown cells to DMM treatment compared to control cancer cells ([7]; shME2-3 vs pLKO A549 cells): more sensitive
- mode of cell death induced by DMM (annexin V assay) ([8]; A549 cells): induced necrosis in A549 cells rather than apoptosis
- cell death in A549 cancer cell ([8]; compared with normal cell lines): selectively induced cell death
- cell death in normal cell lines [9]: not in the normal cell lines

SMILES: N[C@@H](CCC(=O)N[C@@H](CS)C(=O)NCC(=O)O)C(=O)O [GSH, reduced glutathione]
- DMM-induced ROS production [1]: inhibited
- DMM-induced differentiation [5]: reversed the DMM-induced differentiation
- basal Akt activity in DMM-treated A549 cells [5]: rescued basal Akt activity
- DMM-induced cell death [8]: almost completely inhibited

SMILES: CC(=O)N[C@@H](CS)C(=O)O [NAC, N-acetyl-cysteine]
- DMM-induced ROS production [1]: inhibited
- superoxide production in DMM-treated cells ([2]; DMM together with 20 mM NAC): decreased levels of superoxide production
- DMM-induced differentiation [5]: reversed the DMM-induced differentiation
- basal Akt activity in DMM-treated A549 cells [5]: rescued basal Akt activity
- DMM-induced cell death [8]: almost completely inhibited
- cell death induced by ME2 knockdown, rescue by antioxidant ([8]; ME2 depleted cells): failed to rescue

SMILES: NC(=O)CC[C@H](N)C(=O)O [glutamine]
- rescue of cell survival by supplementation [10]: rescued control cells more than ME2 knockdown cells
